Assay results from publication PMC10354055, “An optimized Nurr1 agonist provides disease-modifying effects in Parkinson’s disease models” (Nature Communications, 2023).
“And” between values parts separate entries of the source, which are not always exact repeats. Equal entries are not always repeated.

What was measured:
[1] = system: HeLa cells; test: Autophagolysosome (APL) formation assay, mRFP-GFP-LC3, HeLa cells; type: cell-based; details: EBSS, BafA1 10 nM, CQ 20 µM, 4A7C-301 1 µM
Experimental: Nurr1 transactivity was normalized to β-galactosidase activity.
(§1) HeLa and N27-A cells were transfected with tandem mRFP-GFP-LC3 (Addgene) plasmid using Lipofectamine 2000 (Invitrogen) in 24-well plates. After 24 h, cells were incubated in starvation medium (Earle’s Balanced Salt Solution, EBSS; Lonza) containing bafilomycin A1 (BafA1, 10 nM), CQ (20 µM), or 4A7C-301 (1 µM) for 6 h and then fixed with 4% formaldehyde for fluorescence detection. Images were taken using a KEYENCE microscope and red (mRFP) LC3 dots and yellow (mRFP+GFP) LC3 dots were counted from three independent wells for each treatment group. 10 cells were randomly selected and counted from each well and a total of 30 cells were analyzed for each treatment group in both HeLa and N27-A cells.

[2] = system: N27-A cells; test: Autophagolysosome (APL) formation assay, mRFP-GFP-LC3, N27-A cells; type: cell-based, rat; details: Figure 3b; mRFP-GFP-LC3; individual cells (30 per treatment)
Experimental: as §1

[3] = system: HeLa cells; test: Lysosomal pH detection, LysoSensor, HeLa cells; type: cell-based
Experimental: (§2) Lysosomal pH was detected as previously described. Briefly, after incubation in EBSS containing BafA1 (10 nM), CQ (20 µM), or 4A7C-301 (1 µM) for 6 h, HeLa and N27-A cells were treated with LysoSensor™ Yellow/Blue DND-160 (5 µM; Life Technology) for 45 min, followed by 2 washes in HEPES buffer (Gibco). Fluorescence images at excitation/emission wavelengths of 360/460 nm and 470/525 nm were taken immediately using a 400 nm dichroic mirror (KEYENCE). The ratio of fluorescence intensities (F360/470) were measured and calculated manually using ImageJ for each cell. The average pH from measuring 5 cells from each of three wells for each treatment group in both HeLa and N27-A cells was calculated by fitting the F360/470 values to a plotted pH calibration curve with KCl/NaCl buffered from pH 3.5 to 7.0 using GraphPad Prism (Version 8.0.2).

[4] = system: N27-A cells; test: Lysosomal pH detection, LysoSensor, N27-A cells; type: cell-based, rat
Experimental: as §2

[5] = system: HeLa cells; test: Autophagic flux, Western blot LC3B and p62, HeLa cells; type: cell-based; details: for Relative LC3B-II experession (normalized to β-actin): Supplementary Figure S7f; for Relative p62 experession (normalized to β-actin): Supplementary Figure S7g
Experimental: (§3) Experiments were confirmed by duplicate measurements of the same sample. Quantification of immunoreactive bands was performed using ImageJ software (NIH, Bethesda, MD, USA) and expressed as a relative ratio against β-actin.
(§4) The band intensities were quantified using ImageJ and normalized against β-actin.

[6] = system: N27-A cells; test: Autophagic flux, Western blot LC3B and p62, N27-A cells; type: cell-based, rat; details: individual replicates
Experimental: as §3, §4

Q: Which results are given for `CO/C1=C\C(C)=C\[C@@H](C)[C@@H](O)[C@@H](C)C/C(C)=C/C=C/[C@H](OC)[C@@H]([C@@H](C)[C@@H](O)[C@H](C)[C@@]2(O)C[C@@H](O)[C@H](C)[C@@H](C(C)C)O2)OC1=O` [BafA1, bafilomycin A1]?
A: APL formation / autophagy (in words) [1]: completely inhibited; LC3 dots/cell, Red LC3 dots [2]: 1 dots/cell (14×) and 2 dots/cell (6×) and 0 dots/cell (8×) and 5 dots/cell and 3 dots/cell; LC3 dots/cell, Yellow LC3 dots [2]: 28 dots/cell (2×) and 29 dots/cell (3×) and 21 dots/cell and 37 dots/cell (2×) and 20 dots/cell and 41 dots/cell (2×) and 27 dots/cell (2×) and 31 dots/cell (6×) and 18 dots/cell and 32 dots/cell and 40 dots/cell (2×) and 38 dots/cell and 33 dots/cell and 36 dots/cell and 24 dots/cell and 22 dots/cell and 30 dots/cell and 23 dots/cell; lysosomal pH (in words) ([3]; HeLa, BafA1 10 nM, CQ 20 µM, 4A7C-301 1 µM): significantly increased; Lysosomal pH ([3]; Supplementary Figure S7d, individual replicates): 6.632 and 6.371 and 6.762 and 6.208 and 6.436 and 6.697 and 6.241 and 7.055 and 6.469 and 6.827 and 6.045; Lysosomal pH ([4]; Figure 3d, individual replicates): 6.143 and 6.404 and 6.371 and 6.241 and 6.729 and 6.827 and 6.567 and 6.11 and 6.469 and 6.925 and 6.664 and 6.078 and 6.045; lysosomal pH (in words) ([4]; N27-A, BafA1 10 nM, CQ 20 µM, 4A7C-301 1 µM): significantly increased; autophagic flux (in words) ([5]; HeLa, LC3B-II and p62): failed to terminate; Relative LC3B-II experession (normalized to β-actin) ([5]; time 0h): 0.339 and 0.384 and 0.423; Relative LC3B-II experession (normalized to β-actin) ([5]; time 0.5h): 0.689 and 0.867 and 0.926; Relative LC3B-II experession (normalized to β-actin) ([5]; time 1h): 0.885 and 1.051 and 1.126; Relative LC3B-II experession (normalized to β-actin) ([5]; time 2h): 0.981 and 1.172 and 1.156; Relative LC3B-II experession (normalized to β-actin) ([5]; time 4h): 1.098 and 1.172 and 1.288; Relative p62 experession (normalized to β-actin) ([5]; time 0h): 0.909 and 0.809 and 0.904; Relative p62 experession (normalized to β-actin) ([5]; time 0.5h): 0.781 and 0.847 and 0.974; Relative p62 experession (normalized to β-actin) ([5]; time 1h): 0.754 and 0.822 and 0.940; Relative p62 experession (normalized to β-actin) ([5]; time 2h): 0.804 and 0.850 and 0.987; Relative p62 experession (normalized to β-actin) ([5]; time 4h): 0.978 and 0.992 and 1.169; Relative LC3B-II experession (normalized to β-actin) ([6]; Figure 3f, w/ MPP+, 0h): 0.733 and 0.699 and 0.753; Relative LC3B-II experession (normalized to β-actin) ([6]; Figure 3f, w/ MPP+, 4h): 1.710 and 1.577 and 1.762; Relative LC3B-II experession (normalized to β-actin) ([6]; Figure 3f, w/o MPP+, 0h): 0.546 and 0.525 and 0.431; Relative LC3B-II experession (normalized to β-actin) ([6]; Figure 3f, w/o MPP+, 4h): 1.603 and 1.576 and 1.411; Relative LC3B-II experession (normalized to β-actin) ([6]; Figure 3g, w/ MPP+, 0h): 1.449 and 1.354 and 1.694; Relative LC3B-II experession (normalized to β-actin) ([6]; Figure 3g, w/ MPP+, 4h): 1.439 and 1.341 and 1.659; Relative LC3B-II experession (normalized to β-actin) ([6]; Figure 3g, w/o MPP+, 0h): 1.447 and 1.262 and 1.249; Relative LC3B-II experession (normalized to β-actin) ([6]; Figure 3g, w/o MPP+, 4h): 1.807 and 1.586 and 1.554
